According to patent US20230127559A1, “PEPTIDE ANALOGS AND USE OF SAME IN TREATING DISEASES, DISORDERS OR CONDITIONS ASSOCIATED WITH MUTANT P53 PROTEIN” (YEDA RESEARCH AND DEVELOPMENT CO. LTD., priority 2020, published 2023):
Where a SMILES comes first, the peptide text is derived from it. Bridges are numbered along the chain shown (N, C = ends). [ ]: non-standard residue; d: D form. The star is where a group is joined. Stearoyl = CCCCCCCCCCCCCCCCCC(=O)*; Myristoyl = CCCCCCCCCCCCCC(=O)*; Dab = NCC[C@H](N)C(=O)O

How the values were obtained:
[1] = test system: MIA PaCa-2 (pancreatic carcinoma) cells, p53R248W; format: cell-based; conditions: 48 h
Procedure: (§1) Cells were cultured in 96 wells plates with 2500-4000 cells/well. Serial dilutions of different peptides were added and the plates incubated for additional 48 h at 37° C. Then medium was removed and cell viability was determined by staining the cells with crystal violet (0.05%) in methanol/PBS (1:5, v/v), for 10 min, followed by 3 washes with PBS. 10% acetic acid was added to each well for 10 min. OD was determined at 595 nm.
(§2) The IC50 tables presented in FIGS. 17-20 are from several representative experiments performed on cell lines expressing several p53 hotspot mutations, as well as control non-transformed cells: […]

[2] = test system: PANC1 (pancreatic carcinoma) cells, p53R273H; format: cell-based; conditions: 48 h
Procedure: as §1, §2

[3] = test system: WI38 (non-transformed fibroblasts) cells, wtp53; format: cell-based; conditions: 48 h
Procedure: as §1, §2

[4] = test system: panel of cell lines expressing mutp53; format: cell-based
Procedure: as §1
(§3) The IC50 tables presented in FIGS. 17-20 are from several representative experiments performed on cell lines expressing several p53 hotspot mutations, as well as control non-transformed cells:
Proline residue position—Based on alanine scanning and molecular dynamics analyses, it is believed that the proline residue at the 6th position from the N-terminal is critical for the peptide's 3D structure and provides some rigidity required for peptide binding and activity. Therefore, it was hypothesized that a change in orientation or tetrahedral angle might increase the affinity of the peptide for p53. Six new peptides were synthesized replacing this proline residue with proline analogs (pCAPs 708-712, and pCAP-716, SEQ ID NOS: 6-10 and 14, respectively). This set of peptides was tested for activity on a panel of cell lines expressing mutp53, and compared it to pCAP-674 (SEQ ID NO: 27) and to the scrambled sequence peptides pCAP-721 (SEQ ID NO: 19) and pCAP-722 (SEQ ID NO: 20).

[5] = Solubility at physiological pH; format: physicochemical
[6] = test system: SW-480 (colon carcinoma) cells, p53R273H, P309S; format: cell-based; conditions: 48 h
Procedure: as §1, §2

[7] = Pharmacokinetic profile, LC-MS of peptide concentration in plasma; format: in vivo, mice
Procedure: FIG. 21 depicts PK profile for pCAP-724 (SEQ ID NO:22). LC-MS analysis of peptide concentration in the plasma of injected mice. Each point represents an average reading from 3 mice. Shown are mean plasma concentrations (mpk) of the peptide, following administration either intravenously at 1 mg/kg (IV) or subcutaneously at 5 mg/kg (SC).
Each point represents the average from 3 mice. When administered subcutaneously into mice, pCAP-724 levels reach a maximal concentration after 2 h and a show a half-life (T1/2) of about 10 h. […] From the PK study, it is estimated that a continuous long-acting administration of 20 mg/kg/day of pCAP-724 (SEQ ID NO: 22) will yield a steady state concentration in the blood of about 7-10 μM.

[8] = test system: RXF-393 renal cell carcinoma (RCC) cell line, endogenously expressing p53R175H; assay: RXF-393 luciferase xenograft model, tumor growth by IVIS; format: in vivo, athymic Nude-Foxn1nu mice; conditions: for tumor growth, average IVIS signal (in words): subcutaneous injections 20 mg/Kg, 2 days a week
Source text: To investigate the efficacy of the lead peptides in vivo, a representative cancer cell line-based xenograft model was employed. The selection of the in vivo model was based on the peptide/cell line combination that yielded the strongest effects in culture: human renal carcinoma RXF-393 cells. The peptide analog pCAP-724 (SEQ ID NO: 22), administered by subcutaneous injections and sustained subcutaneous release, was compared to the control scrambled peptide pCAP-722 (SEQ ID NO: 20). Tumor growth was monitored by luciferase activity, measured in an IVIS200® Spectrum system that combines 2D optical and 3D optical tomography in one platform. The system uses leading optical technology for preclinical imaging research and development, ideal for non-invasive longitudinal monitoring of disease progression in living animals
The RXF-393 renal cell carcinoma (RCC) cell line, endogenously expressing p53R175H, and stably expressing Luciferase was utilized. • 1. 0.75×10^6 cells in 50% HBSS 50% Cultrex (1000) were injected subcutaneously, into both hips of athymic Nude-Foxn1nu mice (6 weeks old). • 2. Tumor growth over time was measured by live imaging, using the […] system. Exposure time was calibrated to 20 sec and peak luminescence values were taken for each tumor. • 3. 21 and 24 days after injection of cells, when tumors reached visible size (50-100 mm^3) and an average IVIS signal of 10^7 (100-fold over threshold), the mice were randomly divided into several groups (5 or 6 mice per each group), according to the mode of administration and peptides: • Subcutaneous injections, performed 2 days a week for 3-4 weeks (20 mg/Kg). Two injections will be given for each day of treatment 16 h interval to allow effective level of peptide for 24 h. […]
• 4. Tumor growth over time was measured by live imaging, twice a week. The experiment was conducted until tumors reached the maximal allowed size of 1 cm^3, at which time mice were sacrificed, tumors extracted, measured, photographed, and weighed.

[9] = test system: RXF-393 (renal carcinoma) cells, p53R175H; format: cell-based, human; conditions: 48 h
Procedure: as §1, §3
Fatty acid position. Lead peptides were modified with N-terminal myristic acid to enable the penetration of peptides across the cell membrane. Although myristic acid is usually the default choice for cell permeability, additional options were explored of longer fatty acids and to examine the effect on peptide efficacy in terms of cancer cell killing. A standard crystal violet viability test was performed on human renal carcinoma RXF-393 cells, comparing the original pCAP-553, which has myristic acid (C14), with 4 derivative peptides modified with longer fatty acid chains: palmitic (C16), stearic (C18), […] (C20) and behenic (C22).

[10] = test system: PC9 (lung carcinoma) cells, p53R248Q; format: cell-based; conditions: 48 h
Procedure: as §1, §2

IC50 [2] [nM]	IC50 [6] [nM]	IC50 ([4]; 48 h) [nM]	estimated steady state concentration in the blood ([7]; continuous long-acting administration of 20 mg/kg/day) [µM]	half-life ([7]; mouse, in vivo, sc, 5 mg/kg, administered subcutaneously into mice, read-out: half-life (T1/2) (converted)) [h]	Tmax ([7]; mouse, plasma, sc, 5 mg/kg, administered subcutaneously into mice, read-out: time of maximal plasma concentration) [h]	IC50 [9] [nM]	IC50 [10] [nM]	SMILES	IC50 [1] [nM]	IC50 [3] [nM]	activity in viability assays compared with other peptides (in words) [4]	solubility (in words) [5]	decrease in tumor signal (IVIS) ([8]; Alzet mini pumps 20 mg/Kg/Day SC continuous, within 14 days) [fold]	tumor growth, average IVIS signal (in words) [8]
1020	650	100 to 1000	7 to 10	~10	2	–	–	CCCCCCCCCCCCCCCCCC(=O)N[C@@H](CCCNC(=N)N)C(=O)N[C@@H](CCCNC(=N)N)C(=O)N[C@@H](Cc1c[nH]cn1)C(=O)N[C@@H](CO)C(=O)N[C@@H]1CCCCNC(=O)[C@H](CC(=O)O)NC(=O)[C@@H]2CCCN2C(=O)[C@H](CCN)NC(=O)[C@H]2CCCN2C1=O [pCAP-724, str-RRHSkp(Dab)PD-Cyc] (Stearoyl-RRHS[dK][dP][Dab]PD; lactam 5-C)	250	32000	modest increase in activity compared with pCAP-713	–	5	slowed down tumor growth for the first 10 days
> 40000	–	–	–	–	–	> 40000	> 40000	CCCCCCCCCCCCCCCCCC(=O)N[C@@H](CC(=O)O)C(=O)N1CCC[C@H]1C(=O)N[C@@H](Cc1c[nH]cn1)C(=O)N[C@@H](C(=O)N[C@@H](CO)C(=O)N1CCC[C@H]1C(=O)N[C@@H](CCCNC(=N)N)C(=O)N[C@@H](CCN)C(=O)N[C@@H](CCCNC(=N)N)C(N)=O)C(C)C [pCAP-722, str-DPHvSPR(Dab)R-NH2, reference compound] (Stearoyl-DPH[dV]SPR[Dab]R-NH2)	–	> 40000	–	–	–	continued its exponential growth

SMILES	IC50 [2] [nM]	IC50 [6] [nM]	IC50 ([4]; 48 h) [nM]	estimated steady state concentration in the blood ([7]; continuous long-acting administration of 20 mg/kg/day) [µM]	half-life ([7]; mouse, in vivo, sc, 5 mg/kg, administered subcutaneously into mice, read-out: half-life (T1/2) (converted)) [h]	Tmax ([7]; mouse, plasma, sc, 5 mg/kg, administered subcutaneously into mice, read-out: time of maximal plasma concentration) [h]	IC50 [9] [nM]	IC50 [10] [nM]	IC50 [1] [nM]	IC50 [3] [nM]	activity in viability assays compared with other peptides (in words) [4]	solubility (in words) [5]	decrease in tumor signal (IVIS) ([8]; Alzet mini pumps 20 mg/Kg/Day SC continuous, within 14 days) [fold]	tumor growth, average IVIS signal (in words) [8]
CCCCCCCCCCCCCC(=O)N[C@@H](CCCNC(=N)N)C(=O)N[C@@H](CCCNC(=N)N)C(=O)N[C@@H](Cc1c[nH]cn1)C(=O)N[C@@H](CO)C(=O)N[C@@H](C(=O)N1CCC[C@H]1C(=O)N[C@@H](CCN)C(=O)N1CCC[C@H]1C(=O)N[C@@H](CC(=O)O)C(=O)O)C(C)C [pCAP-553, myr-RRHSvP(L-Dab)PD] (Myristoyl-RRHS[dV]P[Dab]PD-OH; C-terminus assumed)	2100	–	–	–	–	–	–	–	1200	> 40000	improved efficacy relatively to pCAP-250	better solubility at physiological pH	–	–
